Results on five compounds are retold here after publication PMC10042540, “Targeting oncogenic KRasG13C with nucleotide-based covalent inhibitors” (eLife, 2023).

Common to all, as to type: binding
For one assay, the system named is nucleotide-free KRas. In words: Stopped-flow competition with mantdGDP (association kinetics). As to conditions: for kon: 25 °C, 1 µM KRas, 2 µM mantdGDP, 1, 2, 6 µM competing nucleotide, global fit; for koff: calculated kinetic parameter. The protocol: The association kinetics of the nucleotide analogues were analyzed with a SX-20 stopped-flow instrument (Applied Photophysics) at 25 °C in a buffer consisting of 25 mM HEPES (pH 7.5), 100 mM NaCl, 1 mM MgCl2, and 0.5 mM TCEP. 1 µM of nucleotide-free KRas ([Müller et al., 2017]) in one syringe was mixed rapidly with 2 µM mantdGDP in the other. In subsequent experiments, the second syringe contained competing nucleotides (1, 2, and 6 µM) in addition to 2 µM mantdGDP. The resulting progress curves were globally fit using KinTek Explorer to obtain the corresponding association rate constants as previously described (Table 1—source data 1, Table 1—source data 2 [Johnson et al., 2009]).

The subject of assay [1] is T1, KRasG13C1-169 (Cys-light).
T1 construct: KRasWT1-169 and KRasG13C1-169 Cys-light (C51S C80L C118S) were expressed in BL21 (DE3) E. coli; hexahistidine (TEV site) (N, cleaved yes); made in house; host or cells: E. coli BL21 (DE3)
Kind of assay: Covalent modification of protein controlled by ESI-MS. The protocol: After incubation at room temperature for the appropriate time, the modification of the protein was controlled by ESI-MS. For covalent modification of full-length KRasG13C, a nucleotide exchange with a 10-fold excess of the acryl-bearing nucleotides at pH 7.5 was first performed following incubation at room temperature for 24 h at pH 9.5 for covalent protein modification. Covalent protein modification was controlled by ESI-MS. The MS spectra were recorded on a VelosPro IonTrap (Thermo Scientific) with an EC 50/3 Nucleodur C18 1.8 μm column (Macherey and Nagel) and a gradient of the mobile phase A (0.1% formic acid in water) to B (0.1% formic acid in acetonitrile).

In a further assay the target is KRasWT1-169 (Homo sapiens, UniProt P01116). Kind of assay: HPLC-based approach for determination of affinities relative to GDP. As to conditions: for KA: KA = KA(GDP) x KrelA, GDP from KA = 1/KD; for relative association constant KrelA: relative to GDP. The protocol:
The relative affinities of the nucleotide analogues were measured using an HPLC-based approach. 50 μM of […] was mixed with 50 μM of the acetamide derivatives and incubated either for 7 days at room temperature in the absence of EDTA, for 24 hr at 4 °C in the presence of 10 mM EDTA, or for 1 hr at room temperature in the presence of SOS in a buffer consisting of 20 mM HEPES (pH 7.5), 100 mM NaCl, 2 mM MgCl2, 1 mM TCEP and 5% glycerol. After incubation, the Ras proteins were washed five times with buffer (15 mL) using centrifugal filter devices to remove any unbound nucleotide, concentrated and analysed by isocratic HPLC runs. The resulting curves were analysed by integrating the corresponding peaks for GDP and the guanosine nucleotide analogues after distinct time points using the Agilent ChemStation Software (Table 1-source data 3, Table 1-source data 4). Based on the percentage distribution determined by the HPLC assay, the relative association constants (KrelA) for […] and bdaGDP could subsequently be calculated. In contrast, the superposition of the GDP signal prevented an exact determination of the relative association constant for […] values of 0.34 and 0.28 relative to GDP were determined for […] and bdaGDP, respectively. […] By rearranging the equilibrium reactions listed in (Equation 1a) and (Equation 1b), the following relationships are obtained for KGDP (Equation 2a) and […] Assuming that the concentration for aGDP used in the HPLC assay is 50 μM, the following GDP concentrations for […] (Equation 3a) and bdaGDP (Equation 3b) can be determined at time t=0 hr using the percentages determined in Table 1-source data 3:(3a) GDPtotal=%GDP/%[…]=37%/63%×50μM=29.4μM (3b) GDPtotal=%GDP/%bdaGDP=43%/57%×50μM=37.7μM The concentrations of the components listed in equation (Equation 2b) can be calculated as follows for […] (Equation 4a, Equation 4b, Equation 4c, Equation 4d) and bdaGDP (Equation 5a, Equation 5b, Equation 5c, Equation 5d) by considering the total GDP concentrations calculated previously:(4[…]]=47/100×29.4μM=13.8μM (4b) [Ras:GDP]=53/100×29.4μM=15.6μ[…]]=50μM-13.8μM=36.2μM (4d) [GDP]=29.4μM-15.6μM=13.8μM (5a) [Ras:bdaGDP]=39.5/100×37.7μM=14.9μM (5b) [Ras:GDP]=60.5/100×37.7μM=22.8μM (5c) [bdaGDP]=50μM-14.9μM=35.1μM (5d) [GDP]=37.7μM-22.8μM=14.9μM The relative association constant KrelA can be calculated by the following formula (Equation 6):(6) […] By inserting the concentrations of each component determined from (Equation 4a, Equation 4b, Equation 4c, Equation 4d) and (Equation 5a, Equation 5b, Equation 5c, Equation 5d) into (Equation 6), the relative association constants KrelA for […] (Equation 10a) and […]=1/0.136pM^-1=7.4pM (10b) KDbdaGDP=1/0.112pM^-1=8.9pM

Where [2] appears, read: -EDTA, 7 days at room temperature.
The mark [3] stands for this setting: worked calculation KD = 1/KA, Equation 10a/10b.

KRasWT1-169, sequence (P01116 1-169): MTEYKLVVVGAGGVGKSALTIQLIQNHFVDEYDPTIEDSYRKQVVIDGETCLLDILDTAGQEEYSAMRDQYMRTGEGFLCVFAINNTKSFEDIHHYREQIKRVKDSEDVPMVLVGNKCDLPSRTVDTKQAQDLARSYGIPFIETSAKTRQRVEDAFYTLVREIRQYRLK

Turning to `Nc1nc2c(ncn2[C@@H]2O[C@H](COP(=O)(O)OP(=O)(O)OP(=O)(O)O)[C@@H](O)[C@H]2O)c(=O)[nH]1` [GTP, reference compound], in the assay on nucleotide-free KRas, the kon turned out to be 5.23 µM^–1s^–1.
Take `C=CC(=O)NCCCNC(=O)O[C@H]1[C@@H](O)[C@H](n2cnc3c(=O)[nH]c(N)nc32)O[C@@H]1COP(=O)(O)OP(=O)(O)O` [acryl-pdaGDP]: the “covalent labelling of KRasG13C1-169 (Cys-light)” value in assay [1] (pH 7.5, after 24 hr) is “slight labelling”; in assay [1] (pH 9.5, after 24 hr), around 100%.
What is called Kd is the constant that tells how readily two partners part at equilibrium. On to `C=CC(=O)NCCCNC(=O)O[C@H]1[C@@H](O)[C@H](n2cnc3c(=O)[nH]c(N)nc32)O[C@@H]1COP(=O)(O)OP(=O)(O)O` [pdaGDP], for which the equilibrium dissociation constant (Kd) was 10.4 pM on KRasWT1-169 (+SOS, 1 hr at room temperature); 8 pM on KRasWT1-169 (setting [2]); 7.4 pM on KRasWT1-169 (setting [3]). This compound had a KA on KRasWT1-169 of 0.136 pM⁻¹. For the same compound, on KRasWT1-169, the “relative association constant KrelA” value stood at 0.34. Besides, in the assay with nucleotide-free KRas, the kon is reported as 3.34 µM^–1s^–1. The koff in the assay on nucleotide-free KRas is listed as 2.9x10^–5 s^–1.
Regarding `C=CC(=O)NCCCCNC(=O)O[C@H]1[C@@H](O)[C@H](n2cnc3c(=O)[nH]c(N)nc32)O[C@@H]1COP(=O)(O)OP(=O)(O)O` [bdaGDP], binding at KRasWT1-169 (+SOS, 1 hr at room temperature) was characterised by a dissociation constant (Kd) of 10 pM. This compound also showed a Kd on KRasWT1-169 (setting [2]) of 10 pM. In addition, at KRasWT1-169, the KA came out at 0.112 pM⁻¹ and the “relative association constant KrelA” value turned out to be 0.28. For the same compound, the Kd at KRasWT1-169 (setting [3]) is 8.9 pM. Moreover, in the assay on nucleotide-free KRas, the kon worked out at 3.12 µM^–1s^–1 and the koff is on record as 3.0x10^–5 s^–1.
Regarding `C=CC(=O)NCCCCNC(=O)O[C@H]1[C@@H](O)[C@H](n2cnc3c(=O)[nH]c(N)nc32)O[C@@H]1COP(=O)(O)OP(=O)(O)O` [acryl-bdaGDP], the “covalent labelling of KRasG13C1-169 (Cys-light)” value in assay [1] (pH 7.5, after 24 hr) is on record as “slight labelling”; in assay [1] (pH 9.5, after 24 hr), around 100%.
